According to patent US8252768B2, “Designer therapy of pancreatic tumors” (University of Miami, priority 2006, dated 2012):

Legend:
[1] = target: T1, cytidine deaminase (CD) (Homo sapiens, UniProt P32320); test: Competition assay for substrates of cytidine deaminase, crude extracts of PC-3 cells; assay type: biochemical; settings: competition studies, human tumor cell extracts
T1 construct: Crude extracts of PC-3 cells in culture were prepared as described above; endogenous in cells; host or cells: PC-3 cells (crude extract supernatant)
Description: The crude enzyme extract (the supernatant of a 10 minute 14,000×g centrifugation) was then added. When cytidine was used as substrate, assays were conducted with benzacyclouridine to inhibit uridine phosphorylases. […] After 0, 15, and 30 minutes, the reaction was stopped and denatured protein removed as above for dC Kinase. […] Aliquots were then spotted on PE cellulose TLC sheets and the reactants separated with a solvent system composed of isopropanol:HCl:H2O (170:41:39). […] The nucleosides were visualized under U.V. light and the spots cut out and counted. […] Enzyme activity was expressed as nmole formed in 30 min/mg/protein.
Competition assays to determine Substrate Specificity: Crude extracts of PC-3 cells in culture were prepared as described above. Two concentrations of crude extract were utilized for the studies as determined from the analysis of protein.
The assays were run for 0, 15, and 30 minutes.

[2] = system: PC-3 cells; test: Cytotoxicity (clonogenic) assay, 72 h drug exposure; assay type: cell-based, human
Description: (§1) Toxicity and Radiation Studies: The methods using clonogenic assays described by Perez and Greer (Int. J. Rad. Oncology: Biology, Physics 12, 1523-1527, 1986—incorporated herein by reference in its entirety) were followed.
Cytotoxicity Assays: 5×10^5 cells were plated in 60 mm tissue culture dishes in 5 mls of the optimal growth media for the particular cell line in an humidified 95% air-5% CO2 atmosphere. The plates were incubated for 18-20 hours to allow for attachment and log-phase growth to begin. At the end of this period the growth medium was aspirated and replaced with […]. Four times (4×) concentrated solutions were prepared and then 1 ml was added to the plates; and growth media were then added to a total volume of […]. The plates were then incubated for 72 hours and the cells harvested by trypsinization. The cells were then serially diluted in growth medium replated into 60 mm dishes and incubated for 6 to 9 days depending on the cell line. After this incubation period, the media was aspirated and the colonies were washed twice with a PBS solution. The colonies were then stained with a 0.2% crystal violet-20% ethanol solution for 5 min. the stain was removed, the colonies were washed and air dried. A viable colony was one consisting of 25 or more normal appearing cells and was considered to have arisen from a single cell. The colonies were counted under a dissecting microscope. Two to three dilutions for every condition were plated. Dishes containing 30-300 colonies were used in the calculation and all conditions were done in duplicate.

[3] = system: Lewis lung carcinoma; test: Mean day of death (T/C), Lewis lung carcinoma in mice; assay type: in vivo, BD2F1 mice
Description: ; The efficacy of the drug, F3methyldC followed the pattern of Selectivity. The mean day of death (Tumor/Control) was 1.3, 1.6, 1.8 and 1.4 for 10, 25, 50 and 75 mg/kg H4U, respectively. […].

[4] = system: PC-3 cells; test: Radiosensitization of cells in culture (Cobalt 60, clonogenic survival); assay type: cell-based, human; settings: PC-3 cells
Description: as §1
Irradiation of Cells in Culture: 2×10^5 cells were plated in 25 cm^2 flasks and grown for 18 hr at 37° C. in a humidified 5% CO2 atmosphere. The medium was then removed and replaced with medium containing the appropriate drug concentrations and incubated for 72 hrs then removed and the cell monolayers were rinsed twice with PBS. The flasks were then filled with 50 ml of radiation medium (3 parts RPMI 1640 and 7 parts PBS plus antibiotics and glutamine). The cells were then irradiated using a Cobalt 60 irradiator. The cell monolayers were placed 35 cm away from the source and irradiated for appropriate times according to the dose rate. The dose rate was calculated, at this distance, using ionization chambers. Attenuation factors due to the polystyrene flask (0.9923) and the medium (H2O=0.8715) were considered in calculating the exposure period.
After irradiation the cell monolayers were washed again, replenished with growth media, and incubated for 1½ hours. The cell monolayers were then trypsinized and the cells serially diluted, appropriate dilutions were then plated in 60 mm dishes and incubated for 7-9 days at 37° C. and CO2. At the end of this period the cells were stained with crystal violet and the colony forming ability determined by considering 25 or more normal cells as a viable colony. The viabilities were determined and the appropriate survival curves derived. All conditions were done in duplicate using two flasks treated under identical conditions.

[5] = system: mouse tumor; settings: in vivo; cited from earlier work
[6] = target: deoxycytidine kinase (dCK) (Homo sapiens, UniProt P27707); test: Competition assay for substrates of deoxycytidine kinase, crude extracts of PC-3 cells
deoxycytidine kinase (dCK), sequence (P27707 whole entry): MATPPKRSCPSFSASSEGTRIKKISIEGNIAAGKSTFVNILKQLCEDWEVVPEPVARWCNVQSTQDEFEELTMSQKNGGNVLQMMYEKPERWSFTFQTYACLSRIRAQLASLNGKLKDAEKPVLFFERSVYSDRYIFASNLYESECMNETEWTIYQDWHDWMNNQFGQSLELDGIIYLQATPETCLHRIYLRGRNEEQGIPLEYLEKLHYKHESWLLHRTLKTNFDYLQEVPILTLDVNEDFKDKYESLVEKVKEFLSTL

T1 sequence (P32320 whole entry): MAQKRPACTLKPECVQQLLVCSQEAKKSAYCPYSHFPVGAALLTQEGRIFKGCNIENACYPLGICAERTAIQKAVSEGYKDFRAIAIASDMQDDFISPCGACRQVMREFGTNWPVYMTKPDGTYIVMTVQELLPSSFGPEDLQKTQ

Which “substrate for cytidine deaminase (in words)” value [1] does the source give for `Nc1nc(=O)n([C@H]2C[C@H](O)[C@@H](CO)O2)cc1C(F)(F)F` [5-TrifluoromethyldC, 5-Trifluoromethyl-2′-deoxycytidine] here?
Its value is “reasonably good substrate”.

What about the “effect of thymidine on cytotoxicity (in words)” value [2] of the same compound?
The value was “antagonized by thymidine”.

What about the “effect of tetrahydrouridine (H4U) on cytotoxicity / viability (in words)” value ([2]; human, 72 h) of the same compound?
Its value is “can be antagonized by H4U”.

What about the “% S” value ([2]; nucleoside 1 μM, H4U 5 μM) of the same compound?
Its value is 67%.

And the “% S” value ([2]; nucleoside 1 μM, H4U 100 μM)?
The value was 100%.

And the “% S” value ([2]; nucleoside 1 μM, H4U 1500 μM)?
Its value is 100%.

And the “% S” value ([2]; nucleoside 10 μM, H4U 5 μM)?
Its value is 0.1%.

What about the “% S” value ([2]; nucleoside 10 μM, H4U 100 μM) of the same compound?
The value was 2%.

What about the “% S” value ([2]; nucleoside 10 μM, H4U 1500 μM) of the same compound?
Its value is 3.3%.

And the “MDD T/C (mean day of death)” value ([3]; H4U 10 mg/kg with F3methyldC)?
The value was 1.3.

And the “MDD T/C (mean day of death)” value ([3]; H4U 25 mg/kg with F3methyldC, mean ± SE)?
The value was 1.6.

What about the “MDD T/C (mean day of death)” value ([3]; H4U 50 mg/kg with F3methyldC, mean ± SE) of the same compound?
The value was 1.8.

What about the “MDD T/C (mean day of death)” value ([3]; H4U 75 mg/kg with F3methyldC) of the same compound?
Its value is 1.4.

What about the “radiosensitization of PC-3 cells (in words)” value [4] of the same compound?
Its value is “not a radiosensitizer”.

And the “efficacy vs a mouse tumor compared with other fluorinated pyrimidines (in words)” value [5]?
The value was “superior to 5-FUra, 5-FdU and 5-F3dT”.

What about the “substrate for deoxycytidine kinase (in words)” value ([6]; competition studies, human tumor cell extracts) of the same compound?
Its value is “poor substrate”.

And the inhibition at 250 µM ([6]; read-out: % Inhibition (dCK))?
The inhibition at 250 µM was 0%.
